Measured values from US20090124631A1, “Combination Therapy” (priority 2007, published 2009).

Target: T1, HDAC6 (Homo sapiens, UniProt Q9UBN7)
T1 construct: HDAC6 and 8 were cloned as full length N-terminally His-tagged protein; His tag (N); made in house; host or cells: Sf-9 insect cells (baculovirus)
T1 sequence (Q9UBN7 1-1215): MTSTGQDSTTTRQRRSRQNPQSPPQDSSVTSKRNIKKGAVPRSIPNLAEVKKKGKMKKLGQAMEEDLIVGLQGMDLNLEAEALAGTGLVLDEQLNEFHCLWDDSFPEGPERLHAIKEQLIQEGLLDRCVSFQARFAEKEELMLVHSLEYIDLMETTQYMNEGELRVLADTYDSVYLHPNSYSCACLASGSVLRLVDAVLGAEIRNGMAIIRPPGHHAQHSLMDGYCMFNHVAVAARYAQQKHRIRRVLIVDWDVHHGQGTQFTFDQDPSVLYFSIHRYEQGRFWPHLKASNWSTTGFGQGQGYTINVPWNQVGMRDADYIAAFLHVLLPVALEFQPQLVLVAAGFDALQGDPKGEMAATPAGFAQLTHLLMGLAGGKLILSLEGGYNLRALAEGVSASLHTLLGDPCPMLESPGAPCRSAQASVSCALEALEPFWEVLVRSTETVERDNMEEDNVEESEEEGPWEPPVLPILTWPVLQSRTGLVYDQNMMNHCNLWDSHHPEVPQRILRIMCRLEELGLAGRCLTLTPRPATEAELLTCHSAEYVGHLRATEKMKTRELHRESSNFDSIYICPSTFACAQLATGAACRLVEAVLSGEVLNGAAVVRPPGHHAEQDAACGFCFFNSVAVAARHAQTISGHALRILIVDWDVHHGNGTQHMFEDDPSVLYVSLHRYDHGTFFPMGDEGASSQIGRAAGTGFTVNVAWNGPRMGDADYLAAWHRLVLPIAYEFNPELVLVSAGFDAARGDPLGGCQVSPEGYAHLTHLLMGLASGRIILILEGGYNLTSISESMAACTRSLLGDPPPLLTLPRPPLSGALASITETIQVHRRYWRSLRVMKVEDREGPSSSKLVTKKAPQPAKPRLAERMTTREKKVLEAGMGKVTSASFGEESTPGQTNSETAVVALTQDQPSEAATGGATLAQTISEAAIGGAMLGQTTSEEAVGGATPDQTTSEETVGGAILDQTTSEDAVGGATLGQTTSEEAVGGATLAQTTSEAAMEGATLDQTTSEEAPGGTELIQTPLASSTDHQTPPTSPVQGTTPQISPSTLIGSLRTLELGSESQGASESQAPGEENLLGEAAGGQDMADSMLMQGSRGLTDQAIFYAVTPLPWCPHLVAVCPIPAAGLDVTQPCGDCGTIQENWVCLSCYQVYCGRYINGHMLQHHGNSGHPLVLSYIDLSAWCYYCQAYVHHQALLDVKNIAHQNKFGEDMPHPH
Test: Fluorescence-based HDAC enzyme assay, recombinant HDAC6
Type: biochemical
Conditions: recombinant human HDAC enzyme in vitro; read-out: IC50 (μM) HD6
Text: cDNAs of human HDAC1-8 and 11 were generated by RT-PCR reactions using primers complementary to the 5′ and 3′ coding sequence of human HDAC gene sequences in GenBank. cDNAs corresponding to the full length human HDAC1, 2, 3 and 11 were cloned into pBlueBac4.5 vector (Invitrogen). The constructs were used to generate recombinant baculoviruses using the Bac-N-Blue™ DNA according to the manufacturer's instructions (Invitrogen). The recombinant HDAC1, 2, 3, 11 proteins produced harbor a FLAG tag at their C-termini. cDNAs encoding truncated versions of HDAC4, 5 and 7 encompassing their deacetylase domains were cloned into pDEST10 as an N-terminal hexahistidine fusion protein and recombinant baculoviruses were generated using the Bac-to-Bac™ Baculovirus expression system (Invitrogen). HDAC6 and 8 were cloned as full length N-terminally His-tagged protein. All HDAC proteins were expressed in insect Sf-9 cells (Spodoptera frugiperdai) upon infection with recombinant baculovirus. HDAC1 enzyme was purified from the Q-sepharose FF column (Amersham Pharmacia Biotech, Baie d'Urfe QC, Canada) followed by an anti-FLAG immunoaffinity column (Sigma). HDAC2, 3 and 11 were purified using Flag-antibody immunoaffinity purification. HDAC4, 5, 6, 7 and 8 were purified using either Ni-NTA resin (QIAGEN Mississauga ON, Canada) or His-Select resin (Sigma) with step washes and elution with different concentrations of imidazole in Buffer containing 25 mM Tris (or NaPO4) pH 8.0, 10% glycerol and 150 mM or 500 mM NaCl.
Recombinant HDAC enzymes were incubated with diluted compounds in assay buffer (25 mM Hepes, pH 8.0, 137 mM NaCl, 1 mM MgCl2 and 2.7 mM KCl) for 10 minutes at ambient temperatures in black 96-well plate. Boc-Lys(Ac)-AMC (for HDAC1, 2, 3, 6, and 8 enzymes), which was purchased from Bachem Biosciences Inc., (King of Prussia, Philadelphia) were added into enzyme-compound mixture and incubated at 37° C. For HDAC4, 5, 7 assays, Boc-Lys(TFA)-AMC, which was synthesized in house, was used as substrate and 0.1% BSA was added to the buffer. […] Reaction time was predetermined to ensure that reaction was linear for the incubation time. Reaction was stopped by adding a freshly prepared trypsin (1 mg/ml final concentration) with 1 μM TSA (Biomol) in assay buffer. After 30 minutes, fluorescence was measured using a fluorometer (SPECTRAMAX GeminiXS, Molecular Devices, Sunnylvale, Calif.). The 50% inhibitory concentrations (IC50) for inhibitors were determined by analyzing dose-response inhibition curves.

Row | IC50 | Compound
1 | > 10 µM | Nc1ccccc1NC(=O)c1ccc(N2CC[C@H](Nc3cccnc3)C2)cc1 [Compound B]
2 | > 10 µM | Nc1ccc(-c2ccccc2)cc1NC(=O)c1ccc(N2CC[C@H](N)C2)cc1 [Compound D]
3 | > 10 µM | Nc1ccc(-c2ccccc2)cc1NC(=O)c1ccc(N2CCC(N)CC2)cc1 [Compound E]
4 | > 10 µM | CN1CCN(c2ccc(C(=O)Nc3cc(-c4ccccn4)ccc3N)cc2)CC1 [Compound F]
5 | > 10 µM | CN1CCN(c2ccc(C(=O)Nc3cc(-c4ccncc4)ccc3N)cc2)CC1 [Compound G]
6 | > 10 µM | CC(C)N1CCN(c2ccc(C(=O)Nc3cc(-c4ccncc4)ccc3N)cc2)CC1 [Compound H]
